Assay results reported in patent publication US12552751B2, “Crystal forms A, B, C, D, E, F and G of selumetinib sulfate and preparation methods thereof” (Chunghwa Chemical Synthesis & Biotech Co. Ltd., priority 2023, dated 2026).
Values belong to the compound of their own block, whether it stands above or below them.

Key:
[1] = Stability of crystal forms in a constant-humidity and constant-temperature cabinet; format: physicochemical; conditions: for Crystal form after exposure, 80° C. and 75% RH, 1 day / Crystal form after exposure, 80° C. and 75% RH, 3 days: powder; for Crystal form stability under 80° C. and 75% RH (text summary of Table 2): time not stated
Protocol: The stability of crystal forms A, B, C, D, E, F and G of selumetinib sulfate was tested by placing the different crystal forms of selumetinib sulfate into a constant-humidity and constant-temperature cabinet, where the powder of each crystal form was exposed to a temperature of 80° C. and a relative humidity (RH) of 75%.

[2] = cited from earlier work
[3] = solid; cited from earlier work

- Crystal form after exposure, 80° C. and 75% RH, 1 day ([1]; listed as D): Remained D
- Crystal form after exposure, 80° C. and 75% RH, 3 days ([1]; listed as D): Remained D
- Crystal form stability under 80° C. and 75% RH (text summary of Table 2) ([1]; listed as D): remained unchanged
SMILES: Cn1cnc2c(F)c(Nc3ccc(Br)cc3Cl)c(C(=O)NOCCO)cc21.O=S(=O)(O)O [Crystal form D, selumetinib sulfate]

- Crystal form after exposure, 80° C. and 75% RH, 1 day ([1]; listed as E): Remained E
- Crystal form after exposure, 80° C. and 75% RH, 3 days ([1]; listed as E): Remained E
- Crystal form stability under 80° C. and 75% RH (text summary of Table 2) ([1]; listed as E): remained unchanged
SMILES: Cn1cnc2c(F)c(Nc3ccc(Br)cc3Cl)c(C(=O)NOCCO)cc21.O=S(=O)(O)O [Crystal form E, selumetinib sulfate]

- Crystal form after exposure, 80° C. and 75% RH, 1 day ([1]; listed as F): Remained F
- Crystal form after exposure, 80° C. and 75% RH, 3 days ([1]; listed as F): Remained F
- Crystal form stability under 80° C. and 75% RH (text summary of Table 2) ([1]; listed as F): remained unchanged
SMILES: Cn1cnc2c(F)c(Nc3ccc(Br)cc3Cl)c(C(=O)NOCCO)cc21.O=S(=O)(O)O [Crystal form F, selumetinib sulfate]

- Crystal form after exposure, 80° C. and 75% RH, 1 day ([1]; listed as G): Remained G
- Crystal form after exposure, 80° C. and 75% RH, 3 days ([1]; listed as G): Remained G
- Crystal form stability under 80° C. and 75% RH (text summary of Table 2) ([1]; listed as G): remained unchanged
SMILES: Cn1cnc2c(F)c(Nc3ccc(Br)cc3Cl)c(C(=O)NOCCO)cc21.O=S(=O)(O)O [Crystal form G, selumetinib sulfate]

Continued, compound first:

SMILES: Cn1cnc2c(F)c(Nc3ccc(Br)cc3Cl)c(C(=O)NOCCO)cc21.O=S(=O)(O)O [Crystal form A, selumetinib sulfate]
- Crystal form after exposure, 80° C. and 75% RH, 1 day ([1]; listed as A): A turned into C
- Crystal form after exposure, 80° C. and 75% RH, 3 days ([1]; listed as A): A turned into C
- Crystal form stability under 80° C. and 75% RH (text summary of Table 2) ([1]; listed as crystal form A): turned into crystal form C

SMILES: Cn1cnc2c(F)c(Nc3ccc(Br)cc3Cl)c(C(=O)NOCCO)cc21.O=S(=O)(O)O [Crystal form B, selumetinib sulfate]
- Crystal form after exposure, 80° C. and 75% RH, 1 day ([1]; listed as B): Remained B
- Crystal form after exposure, 80° C. and 75% RH, 3 days ([1]; listed as B): Remained B
- Crystal form stability under 80° C. and 75% RH (text summary of Table 2) ([1]; listed as B): remained unchanged

SMILES: Cn1cnc2c(F)c(Nc3ccc(Br)cc3Cl)c(C(=O)NOCCO)cc21.O=S(=O)(O)O [Crystal form C, selumetinib sulfate]
- Crystal form after exposure, 80° C. and 75% RH, 1 day ([1]; listed as C): Remained C
- Crystal form after exposure, 80° C. and 75% RH, 3 days ([1]; listed as C): Remained C
- Crystal form stability under 80° C. and 75% RH (text summary of Table 2) ([1]; listed as C): remained unchanged

SMILES: Cn1cnc2c(F)c(Nc3ccc(Br)cc3Cl)c(C(=O)NOCCO)cc21.O=S(=O)(O)O [Selumetinib sulfate]
- Solubility in acetonitrile ([2]; acetonitrile): slightly soluble
- Solubility in ethanol ([2]; ethanol): slightly soluble
- Solubility in water ([2]; water): very low solubility
- Hygroscopicity [3]: non-hygroscopic
